From the NIST ThermoML archive (doi:10.1021/je049671t)
Numbers after ± are expanded uncertainties.

Assay: xn = mol fraction of the nth substance listed
Settings: Liquid, Vibrating tube method

CC(C)C [2-methylpropane] + CCC
mass density (240 K, 398.2 kPa, x2 = 0.25): 608.19 ± 0.26 kg/m3
mass density (240 K, 475.1 kPa, x2 = 0.25): 608.27 ± 0.27 kg/m3
mass density (240 K, 529.1 kPa, x2 = 0.75): 584.35 ± 0.27 kg/m3
mass density (240 K, 1000.1 kPa, x2 = 0.25): 608.87 ± 0.27 kg/m3
mass density (240 K, 1024.1 kPa, x2 = 0.75): 584.98 ± 0.28 kg/m3
mass density (240 K, 1473.4 kPa, x2 = 0.75): 585.53 ± 0.28 kg/m3
mass density (240 K, 1505.9 kPa, x2 = 0.25): 609.45 ± 0.27 kg/m3
mass density (240 K, 2000.7 kPa, x2 = 0.75): 586.19 ± 0.29 kg/m3
mass density (240 K, 2004.5 kPa, x2 = 0.25): 610.02 ± 0.28 kg/m3
mass density (240 K, 2531.8 kPa, x2 = 0.75): 586.84 ± 0.29 kg/m3
mass density (240 K, 2533 kPa, x2 = 0.25): 610.61 ± 0.28 kg/m3
mass density (240 K, 3006.4 kPa, x2 = 0.75): 587.4 ± 0.3 kg/m3
mass density (240 K, 3028.4 kPa, x2 = 0.25): 611.15 ± 0.29 kg/m3
mass density (240 K, 3537.9 kPa, x2 = 0.25): 611.73 ± 0.29 kg/m3
mass density (240 K, 3545.4 kPa, x2 = 0.75): 588.06 ± 0.3 kg/m3
mass density (240 K, 4012.9 kPa, x2 = 0.75): 588.63 ± 0.31 kg/m3
mass density (240 K, 4027.7 kPa, x2 = 0.25): 612.28 ± 0.3 kg/m3
mass density (240 K, 4515.3 kPa, x2 = 0.75): 589.21 ± 0.31 kg/m3
mass density (240 K, 4519.1 kPa, x2 = 0.25): 612.81 ± 0.3 kg/m3
mass density (240 K, 4996.8 kPa, x2 = 0.75): 589.79 ± 0.32 kg/m3
mass density (240 K, 5030.4 kPa, x2 = 0.25): 613.37 ± 0.31 kg/m3
mass density (240 K, 5496.4 kPa, x2 = 0.75): 590.37 ± 0.32 kg/m3
mass density (240 K, 5533.4 kPa, x2 = 0.25): 613.91 ± 0.31 kg/m3
mass density (240 K, 6009 kPa, x2 = 0.75): 590.98 ± 0.33 kg/m3
mass density (240 K, 6033 kPa, x2 = 0.25): 614.45 ± 0.32 kg/m3
mass density (240 K, 6541 kPa, x2 = 0.75): 591.59 ± 0.33 kg/m3
mass density (240 K, 6541.5 kPa, x2 = 0.25): 615 ± 0.32 kg/m3
mass density (240 K, 6969.5 kPa, x2 = 0.75): 592.1 ± 0.34 kg/m3
mass density (240 K, 6987.7 kPa, x2 = 0.25): 615.48 ± 0.33 kg/m3
mass density (240 K, x2 = 0.25): 607.81 ± 0.26 kg/m3
mass density (240 K, x2 = 0.75): 583.82 ± 0.27 kg/m3
mass density (250 K, 515.5 kPa, x2 = 0.499): 584.94 ± 0.27 kg/m3
mass density (250 K, 1014.4 kPa, x2 = 0.499): 585.61 ± 0.28 kg/m3
mass density (250 K, 1511.1 kPa, x2 = 0.499): 586.26 ± 0.28 kg/m3
mass density (250 K, 2027.5 kPa, x2 = 0.499): 586.95 ± 0.29 kg/m3
mass density (250 K, 2489.8 kPa, x2 = 0.499): 587.55 ± 0.29 kg/m3
mass density (250 K, 3012.9 kPa, x2 = 0.499): 588.23 ± 0.3 kg/m3
mass density (250 K, 3492.5 kPa, x2 = 0.499): 588.84 ± 0.3 kg/m3
mass density (250 K, 3995.9 kPa, x2 = 0.499): 589.47 ± 0.31 kg/m3
mass density (250 K, 4532.5 kPa, x2 = 0.499): 590.12 ± 0.31 kg/m3
mass density (250 K, 5042.2 kPa, x2 = 0.499): 590.74 ± 0.32 kg/m3
mass density (250 K, 5484.6 kPa, x2 = 0.499): 591.29 ± 0.32 kg/m3
mass density (250 K, 5996.5 kPa, x2 = 0.499): 591.9 ± 0.33 kg/m3
mass density (250 K, 6509.5 kPa, x2 = 0.499): 592.48 ± 0.33 kg/m3
mass density (250 K, 6818.8 kPa, x2 = 0.499): 592.84 ± 0.34 kg/m3
mass density (250 K, x2 = 0.499): 584.44 ± 0.27 kg/m3
mass density (260 K, 251.9 kPa, x2 = 0.75): 560.57 ± 0.27 kg/m3
mass density (260 K, 521.1 kPa, x2 = 0.25): 586.55 ± 0.27 kg/m3
mass density (260 K, 527 kPa, x2 = 0.75): 561.44 ± 0.28 kg/m3
mass density (260 K, 990.2 kPa, x2 = 0.25): 587.2 ± 0.28 kg/m3
mass density (260 K, 1026.1 kPa, x2 = 0.75): 562.22 ± 0.28 kg/m3
mass density (260 K, 1481.6 kPa, x2 = 0.25): 587.88 ± 0.28 kg/m3
mass density (260 K, 1524.1 kPa, x2 = 0.75): 563.04 ± 0.29 kg/m3
mass density (260 K, 2004.4 kPa, x2 = 0.25): 588.63 ± 0.29 kg/m3
mass density (260 K, 2030.6 kPa, x2 = 0.75): 563.8 ± 0.29 kg/m3
mass density (260 K, 2504.8 kPa, x2 = 0.25): 589.32 ± 0.29 kg/m3
mass density (260 K, 2508.8 kPa, x2 = 0.75): 564.52 ± 0.3 kg/m3
mass density (260 K, 2995 kPa, x2 = 0.25): 589.98 ± 0.3 kg/m3
mass density (260 K, 3035.5 kPa, x2 = 0.75): 565.31 ± 0.3 kg/m3
mass density (260 K, 3494.1 kPa, x2 = 0.75): 566 ± 0.31 kg/m3
mass density (260 K, 3517.2 kPa, x2 = 0.25): 590.65 ± 0.3 kg/m3
mass density (260 K, 3986.7 kPa, x2 = 0.25): 591.2 ± 0.31 kg/m3
mass density (260 K, 4039.9 kPa, x2 = 0.75): 566.81 ± 0.32 kg/m3
mass density (260 K, 4476.3 kPa, x2 = 0.25): 591.87 ± 0.31 kg/m3
mass density (260 K, 4527.2 kPa, x2 = 0.75): 567.5 ± 0.32 kg/m3
mass density (260 K, 4968.6 kPa, x2 = 0.75): 568.07 ± 0.33 kg/m3
mass density (260 K, 4976.3 kPa, x2 = 0.25): 592.53 ± 0.32 kg/m3
mass density (260 K, 5537.1 kPa, x2 = 0.75): 568.72 ± 0.33 kg/m3
mass density (260 K, 5550.8 kPa, x2 = 0.25): 593.3 ± 0.32 kg/m3
mass density (260 K, 6051.9 kPa, x2 = 0.25): 593.96 ± 0.33 kg/m3
mass density (260 K, 6474.3 kPa, x2 = 0.25): 594.47 ± 0.33 kg/m3
mass density (260 K, 6513.6 kPa, x2 = 0.75): 570.1 ± 0.34 kg/m3
mass density (260 K, 6922.9 kPa, x2 = 0.75): 570.57 ± 0.35 kg/m3
